Data from US20220220128A1, “HETEROCYCLIC COMPOUNDS AS KINASE INHIBITORS, COMPOSITIONS COMPRISING THE HETEROCYCLIC COMPOUND, AND METHODS OF USE THEREOF” (JS Innopharm (Shanghai) Ltd, priority 2019, published 2022).

Tests used:
human KDR kinase = target: T1, human KDR kinase (Homo sapiens, UniProt P35968); test: KDR Kinase Assay (LanthaScreen TR-FRET enzymatic assay); assay type: biochemical; conditions: 1.2 nM KDR, 92 μM ATP
T1 construct: purchased Carna 08-191
Summary of the method: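 Recombinant human KDR (1.2 nM) preincubated 15 min at room temperature with compound, then reacted with 3 μM FAM-P22 peptide and 92 μM ATP in 50 mM HEPES pH 7.5 for 1 h at 28° C. EDTA stop, then TR-FRET acceptor/donor ratio read; percent of 1% DMSO control fitted sigmoidally for IC50.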

TT cells = test: TT Cell Proliferation Assay (WST-8, 8 days); assay type: cell-based; conditions: Homo sapiens, TT, 192 h, growth inhibition in TT cells, read-out: TT Cellular Activity
Summary of the method: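 TT cells, 6,000/well in RPMI-1640 with 10% FBS, attached 24 h, then exposed to compound at 5 μM down to 0.0005 μM final (0.5% DMSO) for 8 days at 37 °C. WST-8 added for 5 h, absorbance at 450 nm. IC50 calculated from the dilution series.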

human RET kinase = target: T2, human RET kinase (Homo sapiens, UniProt P07949); test: RET Kinase Assay (LanthaScreen TR-FRET enzymatic assay); assay type: biochemical; conditions: 7 nM RET, 23 μM ATP
T2 construct: purchased Carna 08-159
Summary of the method: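 Human RET (7 nM) preincubated 15 min with compound in 50 mM HEPES pH 7.5, 0.0015% Brij-35, then reacted with 3 μM FAM-P2 peptide and 23 μM ATP for 1 h at 28° C.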

T1 sequence (P35968 20-1356): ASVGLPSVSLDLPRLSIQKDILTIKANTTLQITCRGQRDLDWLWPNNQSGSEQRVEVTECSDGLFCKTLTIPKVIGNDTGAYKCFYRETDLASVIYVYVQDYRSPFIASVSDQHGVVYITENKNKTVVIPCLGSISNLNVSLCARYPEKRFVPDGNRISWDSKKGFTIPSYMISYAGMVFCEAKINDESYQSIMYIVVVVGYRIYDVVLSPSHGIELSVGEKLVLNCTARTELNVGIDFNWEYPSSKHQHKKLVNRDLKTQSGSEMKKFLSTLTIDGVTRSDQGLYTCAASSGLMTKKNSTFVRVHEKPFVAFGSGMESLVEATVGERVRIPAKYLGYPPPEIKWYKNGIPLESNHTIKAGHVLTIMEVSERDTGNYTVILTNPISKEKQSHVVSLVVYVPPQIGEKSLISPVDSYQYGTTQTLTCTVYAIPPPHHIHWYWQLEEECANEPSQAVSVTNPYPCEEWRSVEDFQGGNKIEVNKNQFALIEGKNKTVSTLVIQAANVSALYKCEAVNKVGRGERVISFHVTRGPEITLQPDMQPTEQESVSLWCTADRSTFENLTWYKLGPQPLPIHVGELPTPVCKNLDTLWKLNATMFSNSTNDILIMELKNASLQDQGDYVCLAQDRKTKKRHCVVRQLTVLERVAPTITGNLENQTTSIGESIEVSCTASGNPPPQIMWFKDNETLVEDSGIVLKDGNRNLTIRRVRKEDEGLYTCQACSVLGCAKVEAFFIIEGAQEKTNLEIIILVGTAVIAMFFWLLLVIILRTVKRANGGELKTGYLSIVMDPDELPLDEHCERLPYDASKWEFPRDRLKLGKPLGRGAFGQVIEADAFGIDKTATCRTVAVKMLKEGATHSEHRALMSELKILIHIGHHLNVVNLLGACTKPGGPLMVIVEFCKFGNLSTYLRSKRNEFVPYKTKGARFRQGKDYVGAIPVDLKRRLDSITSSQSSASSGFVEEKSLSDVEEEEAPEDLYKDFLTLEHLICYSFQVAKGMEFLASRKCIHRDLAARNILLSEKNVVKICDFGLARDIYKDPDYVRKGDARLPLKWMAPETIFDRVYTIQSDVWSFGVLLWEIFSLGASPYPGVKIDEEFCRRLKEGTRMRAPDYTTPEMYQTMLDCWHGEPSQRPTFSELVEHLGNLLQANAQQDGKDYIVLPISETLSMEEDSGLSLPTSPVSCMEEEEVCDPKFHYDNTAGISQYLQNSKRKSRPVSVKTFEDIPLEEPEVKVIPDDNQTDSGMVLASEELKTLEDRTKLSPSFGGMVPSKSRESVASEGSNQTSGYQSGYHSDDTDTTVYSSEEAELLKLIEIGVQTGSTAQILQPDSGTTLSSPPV
T2 sequence (P07949 29-1114): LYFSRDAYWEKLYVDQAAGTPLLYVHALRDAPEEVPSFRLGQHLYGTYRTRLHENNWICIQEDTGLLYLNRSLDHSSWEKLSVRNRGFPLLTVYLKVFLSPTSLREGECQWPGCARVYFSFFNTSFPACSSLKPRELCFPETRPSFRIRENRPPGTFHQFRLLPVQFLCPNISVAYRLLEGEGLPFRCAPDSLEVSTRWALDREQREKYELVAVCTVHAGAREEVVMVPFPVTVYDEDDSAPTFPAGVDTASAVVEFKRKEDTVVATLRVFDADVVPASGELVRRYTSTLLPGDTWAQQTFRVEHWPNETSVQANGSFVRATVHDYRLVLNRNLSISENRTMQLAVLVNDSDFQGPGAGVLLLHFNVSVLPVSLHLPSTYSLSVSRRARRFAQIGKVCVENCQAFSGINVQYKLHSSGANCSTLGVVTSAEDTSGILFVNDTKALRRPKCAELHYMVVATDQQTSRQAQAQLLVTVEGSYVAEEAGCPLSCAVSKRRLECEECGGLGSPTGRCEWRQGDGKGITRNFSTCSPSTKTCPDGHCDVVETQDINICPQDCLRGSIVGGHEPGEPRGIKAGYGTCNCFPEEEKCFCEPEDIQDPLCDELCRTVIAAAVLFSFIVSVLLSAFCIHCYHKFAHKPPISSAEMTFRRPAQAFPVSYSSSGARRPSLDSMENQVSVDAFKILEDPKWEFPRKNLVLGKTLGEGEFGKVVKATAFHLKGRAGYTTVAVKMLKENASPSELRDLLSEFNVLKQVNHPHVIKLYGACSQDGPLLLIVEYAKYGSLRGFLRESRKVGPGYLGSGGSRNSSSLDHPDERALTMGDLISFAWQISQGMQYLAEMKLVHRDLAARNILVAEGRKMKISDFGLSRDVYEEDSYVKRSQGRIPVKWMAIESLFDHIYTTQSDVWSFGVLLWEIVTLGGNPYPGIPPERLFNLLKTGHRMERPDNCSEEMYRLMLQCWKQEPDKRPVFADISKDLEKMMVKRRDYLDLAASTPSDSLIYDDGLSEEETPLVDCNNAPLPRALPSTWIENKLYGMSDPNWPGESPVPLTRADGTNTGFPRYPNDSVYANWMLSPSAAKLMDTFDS

Row | Structure (SMILES) | IC50 (human KDR kinase) | IC50 (human RET kinase) | IC50 (TT cells)
1 | CC(C)(O)COc1cc(-c2ccc(N3C[C@@H]4[C@H](C3)[C@@H]4NC(=O)c3ncccc3Cl)nc2)c2c(C#N)cnn2c1 [Example 44, 3-chloro-N-((1R,5S,6r)-3-(5-(3-cyano-6-(2-hydroxy-2-methylpropoxy)pyrazolo[1,5-a]pyridin-4-yl)pyridin-2-yl)-3-azabicyclo[3.1.0]hexan-6-yl)picolinamide] | > 100 nM | 50 to 100 nM | > 100 nM
2 | Cn1cc(-c2cc(-c3ccc(N4C[C@@H]5[C@@H](CNC(=O)c6cc(F)ccc6Cl)[C@@H]5C4)nc3)c3c(C#N)cnn3c2)cn1 [Example 80, 2-chloro-N-(((1R,5S,6s)-3-(5-(3-cyano-6-(1-methyl-1H-pyrazol-4-yl)pyrazolo[1,5-a]pyridin-4-yl)pyridin-2-yl)-3-azabicyclo[3.1.0]hexan-6-yl)methyl)-5-fluorobenzamide] | ≤ 10 nM | ≤ 10 nM | ≤ 10 nM
3 | Cn1ccc(-c2cc(-c3cnc(N4C[C@@H]5C[C@@](C)(NC(=O)c6c(F)cccc6Cl)C[C@@H]5C4)cn3)c3c(C#N)cnn3c2)n1 [Example 100, 2-chloro-N-((3aR,5s,6aS)-2-(5-(3-cyano-6-(1-methyl-1H-pyrazol-3-yl)pyrazolo[1,5-a]pyridin-4-yl)pyrazin-2-yl)-5-methyloctahydrocyclopenta[c]pyrrol-5-yl)-6-fluorobenzamide] | 10 to 50 nM | ≤ 10 nM | ≤ 10 nM
4 | CC(C)C(O)C(=O)N[C@@H]1[C@@H]2CN(c3ccc(-c4cc(-c5cnn(C)c5)cn5ncc(C#N)c45)cc3)C[C@@H]21 (stereo partly drawn) [Example 17, N-((1R,5S,6r)-3-(4-(3-cyano-6-(1-methyl-1H-pyrazol-4-yl)pyrazolo[1,5-a]pyridin-4-yl)phenyl)-3-azabicyclo[3.1.0]hexan-6-yl)-2-hydroxy-3-methylbutanamide] | 10 to 50 nM | ≤ 10 nM | 10 to 50 nM
5 | Cn1cc(-c2cc(-c3cnc(N4C[C@@H]5C[C@@](C)(NC(=O)c6ncccc6F)C[C@@H]5C4)cn3)c3c(C#N)cnn3c2)cn1 [Example 142, N-((3aR,5s,6aS)-2-(5-(3-cyano-6-(1-methyl-1H-pyrazol-4-yl)pyrazolo[1,5-a]pyridin-4-yl)pyrazin-2-yl)-5-methyloctahydrocyclopenta[c]pyrrol-5-yl)-3-fluoropicolinamide] | 10 to 50 nM | ≤ 10 nM | ≤ 10 nM
6 | COc1cc(-c2ccc(N3C[C@@H]4[C@H](C3)[C@H]4NC(=O)c3ncccc3Cl)nc2)c2c(C#N)cnn2c1 [Example 39, 3-chloro-N-((1R,5S,6s)-3-(5-(3-cyano-6-methoxypyrazolo[1,5-a]pyridin-4-yl)pyridin-2-yl)-3-azabicyclo[3.1.0]hexan-6-yl)picolinamide] | > 100 nM | 50 to 100 nM | > 100 nM
7 | Cc1ccc(Cl)c(C(=O)N[C@H]2[C@@H]3CN(c4ccc(-c5cc(-c6cnn(C)c6)cn6ncc(C#N)c56)cn4)C[C@@H]32)n1 [Example 27, 3-chloro-N-((1R,5S,6s)-3-(5-(3-cyano-6-(1-methyl-1H-pyrazol-4-yl)pyrazolo[1,5-a]pyridin-4-yl)pyridin-2-yl)-3-azabicyclo[3.1.0]hexan-6-yl)-6-methylpicolinamide] | 10 to 50 nM | ≤ 10 nM | 10 to 50 nM
8 | Cn1ccc(-c2cc(-c3ccc(N4C[C@@H]5C[C@@](C)(NS(=O)(=O)c6c(F)cccc6Cl)C[C@@H]5C4)nc3)c3c(C#N)cnn3c2)n1 [Example 178, 2-chloro-N-((3aR,5s,6aS)-2-(5-(3-cyano-6-(1-methyl-1H-pyrazol-3-yl)pyrazolo[1,5-a]pyridin-4-yl)pyridin-2-yl)-5-methyloctahydrocyclopenta[c]pyrrol-5-yl)-6-fluorobenzenesulfonamide] | 10 to 50 nM | ≤ 10 nM | ≤ 10 nM
9 | Cc1cccc(Cl)c1C(=O)N[C@H]1[C@@H]2CN(c3ccc(-c4cc(-c5cnn(C)c5)cn5ncc(C#N)c45)cn3)C[C@@H]21 [Example 23, 2-chloro-N-((1R,5S,6s)-3-(5-(3-cyano-6-(1-methyl-1H-pyrazol-4-yl)pyrazolo[1,5-a]pyridin-4-yl)pyridin-2-yl)-3-azabicyclo[3.1.0]hexan-6-yl)-6-methylbenzamide] | ≤ 10 nM | ≤ 10 nM | ≤ 10 nM
10 | CCOc1cc(-c2ccc(N3C[C@@H]4C[C@@](C)(NC(=O)c5c(C)cccc5Cl)C[C@@H]4C3)nc2)c2c(C#N)cnn2c1 [Example 63, 2-chloro-N-((3aR,5s,6aS)-2-(5-(3-cyano-6-ethoxypyrazolo[1,5-a]pyridin-4-yl)pyridin-2-yl)-5-methyloctahydrocyclopenta[c]pyrrol-5-yl)-6-methylbenzainide] | 50 to 100 nM | ≤ 10 nM | 10 to 50 nM

Further lines, with some results ahead:

Row | IC50 (human KDR kinase) | IC50 (human RET kinase) | Structure (SMILES) | IC50 (TT cells)
11 | 50 to 100 nM | ≤ 10 nM | CCOc1cc(-c2ccc(N3C[C@@H]4C[C@@](C)(NC(=O)c5ncccc5C(F)(F)F)C[C@@H]4C3)nc2)c2c(C#N)cnn2c1 [Example 65, N-((3aR,5s,6aS)-2-(5-(3-cyano-6-ethoxypyrazolo[1,5-a]pyridin-4-yl)pyridin-2-yl)-5-methyloctahydrocyclopenta[c]pyrrol-5-yl)-3-(trifluoromethyl)picolinamide] | 10 to 50 nM
12 | 10 to 50 nM | ≤ 10 nM | Cn1cc(-c2cc(-c3ccc(N4C[C@@H]5[C@H](C4)[C@H]5NC(=O)c4ncc(F)cc4Cl)nc3)c3c(C#N)cnn3c2)cn1 [Example 22, 3-chloro-N-((1R,5S,6s)-3-(5-(3-cyano-6-(1-methyl-1H-pyrazol-4-yl)pyrazolo[1,5-a]pyridin-4-yl)pyridin-2-yl)-3-azabicyclo[3.1.0]hexan-6-yl)-5-fluoropicolinamide] | 50 to 100 nM
13 | ≤ 10 nM | ≤ 10 nM | Cn1cc(-c2cc(-c3ccc(N4C[C@@H]5[C@H](C4)[C@@H]5NC(=O)Nc4ccccc4)nc3)c3c(C#N)cnn3c2)cn1 [Example 36, 1-((1R,5S,6r)-3-(5-(3-cyano-6-(1-methyl-1H-pyrazol-4-yl)pyrazolo[1,5-a]pyridin-4-yl)pyridin-2-yl)-3-azabicyclo[3.1.0]hexan-6-yl)-3-phenylurea] | 10 to 50 nM
14 | 10 to 50 nM | ≤ 10 nM | Cn1ccc(-c2cc(-c3ccc(N4C[C@@H]5[C@H](C4)[C@H]5NC(=O)c4ncccc4Cl)nc3)c3c(C#N)cnn3c2)n1 [Example 29, 3-chloro-N-((1R,5S,6s)-3-(5-(3-cyano-6-(1-methyl-1H-pyrazol-3-yl)pyrazolo[1,5-a]pyridin-4-yl)pyridin-2-yl)-3-azabicyclo[3.1.0]hexan-6-yl)picolinamide] | 50 to 100 nM
15 | > 100 nM | 50 to 100 nM | CCOc1cc(-c2cnc(N3C[C@@H]4[C@H](C3)[C@H]4NC(=O)c3ncccc3Cl)cn2)c2c(C#N)cnn2c1 [Example 42, 3-chloro-N-((1R,5S,6s)-3-(5-(3-cyano-6-ethoxypyrazolo[1,5-a]pyridin-4-yl)pyrazin-2-yl)-3-azabicyclo[3.1.0]hexan-6-yl)picolinamide] | > 100 nM
16 | ≤ 10 nM | ≤ 10 nM | Cn1cc(-c2cc(-c3cnc(N4C[C@@H]5C[C@@](C)(NC(=O)c6c(F)cccc6Cl)C[C@@H]5C4)cn3)c3c(C#N)cnn3c2)cn1 [Example 141, 2-chloro-N-((3aR,5s,6aS)-2-(5-(3-cyano-6-(1-methyl-1H-pyrazol-4-yl)pyrazolo[1,5-a]pyridin-4-yl)pyrazin-2-yl)-5-methyloctahydrocyclopenta[c]pyrrol-5-yl)-6-fluorobenzamide] | ≤ 10 nM
17 | 50 to 100 nM | ≤ 10 nM | CCOc1cc(-c2ccc(N3C[C@@H]4C[C@@](C)(NC(=O)c5c(F)cccc5Cl)C[C@@H]4C3)nc2)c2c(C#N)cnn2c1 [Example 66, 2-chloro-N-((3aR,5s,6aS)-2-(5-(3-cyano-6-ethoxypyrazolo[1,5-a]pyridin-4-yl)pyridin-2-yl)-5-methyloctaliydrocyclopenta[c]pyrrol-5-yl)-6-fluorobenzamide] | 10 to 50 nM
18 | ≤ 10 nM | ≤ 10 nM | Cc1ccc(Cl)c(C(=O)NC[C@@H]2[C@H]3CN(c4ccc(-c5cc(-c6cnn(C)c6)cn6ncc(C#N)c56)cn4)C[C@@H]23)n1 [Example 82, 3-chloro-N-(((1R,5S,6s)-3-(5-(3-cyano-6-(1-methyl-1H-pyrazol-4-yl)pyrazolo[1.5-a]pyridin-4-yl)pyridin-2-yl)-3-azabicyclo[3.1.0]hexan-6-yl)methyl)-6-methylpicolinamide] | ≤ 10 nM
19 | > 100 nM | 10 to 50 nM | Cn1cc(-c2cc(-c3ccc(N4C[C@@H]5C[C@@](C)(NC(=O)c6c(F)cccc6Cl)C[C@@H]5C4)nc3)c3c(C#N)cnn3c2)cn1 [Example 57, 2-chloro-N-((3aR,5s,6aS)-2-(5-(3-cyano-6-(1-methyl-1H-pyrazol-4-yl)pyrazolo[1,5-a]pyridin-4-yl)pyridin-2-yl)-5-methyloctahydro-cyclopenta[c]pyrrol-5-yl)-6-fluorobenzamide] | ≤ 10 nM
20 | ≤ 10 nM | ≤ 10 nM | Cn1cc(-c2cc(-c3ccc(N4C[C@@H]5[C@@H](CNC(=O)c6ncc(F)cc6Cl)[C@@H]5C4)nc3)c3c(C#N)cnn3c2)cn1 [Example 85, 3-chloro-N-(((1R,5S,6s)-3-(5-(3-cyano-6-(1-methyl-1H-pyrazol-4-yl)pyrazolo[1,5-a]pyridin-4-yl)pyridin-2-yl)-3-azabicyclo[3.1.0]hexan-6-yl)methyl)-5-fluoropicolinamide] | ≤ 10 nM
